Test in all cases: NCI tumour cell line growth inhibition, 48 h
Experiment [1] has as its system SNB-19 CNS.
Experiment [2] deals with OVCAR-8 ovarian.
The test system of experiment [3] is NCI-H522 lung.
Experiment [4] deals with SNB-75 CNS.
The subject of experiment [5] is ACHN renal.
In experiment [6] the test system is DU-145 prostate.
Experiment [7] concerns SN12C renal.
Experiment [8] relates to SNB-78 CNS.
Experiment [9] has as its system KM20L2 colon.
Experiment [10] relates to UO-31 renal.

Structures are written as SMILES. Several values for one entry are separate records, joined by “and”; a condition that tells them apart may be missing. Identical values can stand only once.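 Assay format: 96-well plates, 48-hour exposure. The concentration for 50% growth inhibition is given as GI50. The concentration for full growth arrest is given as TGI.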

Consider `Cc1cc(NC(=O)C(=O)Cc2nc3ccccc3s2)ccc1Cl`, for which the TGI in experiment [1], in experiment [2], in [3], in [4], in experiment [5] and in [6] was over 100 µM each time. Also, the TGI in experiment [7], in experiment [8], in [9] and in [10] was over 100 µM each time.
As to `CC1=NN(c2ccccc2)C(=O)C1C(=O)C(=O)Nc1ccc(C)cc1C` (stereo not given), the TGI in experiment [1], in [2], in experiment [3], in experiment [4], in [5] and in experiment [6] was over 100 µM each time. The TGI in experiment [7], in [8], in [9] and in experiment [10] was over 100 µM in each case.
Turning to `COc1cc([C@@H]2c3cc4c(cc3[C@@H](NC(=O)c3ccc([N+](=O)[O-])cc3)C3COC(=O)[C@@H]32)OCO4)cc(OC)c1O` (stereo not given in full), the TGI in experiment [1] came to 6.06 µM; in experiment [2], 6.05 µM; in [3] it was 2.09 µM; in [4] it was 4.86 µM; in [5], 1.58 µM; in experiment [7] it was 1.37 µM. In addition, the TGI is 75.5 µM in experiment [8], 3.73 µM in experiment [9] and 10.4 µM in experiment [10].
Turning to `CC(C)(C)C1CCN(C(=O)c2ccccc2)CC1`, the TGI in [1], in experiment [2], in [3], in experiment [4], in experiment [5] and in experiment [7] was over 100 µM each time. Moreover, the TGI in experiment [8], in [9] and in experiment [10] was over 100 µM throughout.
In the case of `COC(=O)C1CCc2nnc(-c3cccnc3)n21` (stereo not given), the TGI in experiment [1], in experiment [2], in [3], in experiment [4], in [5] and in [7] was over 100 µM each time. The TGI in [8], in experiment [9] and in [10] was over 100 µM throughout.
In the case of `COC(=O)C12OCC34C(CC5C(C)=CC(=O)C(O)C5(C)C3C(O)C1O)OC(=O)C(OC(=O)CC(C)C)C24` (stereo not given), the GI50 in experiment [2] was < 0.0391 µM and 0.05 µM; in [4] it was 0.0825 µM and 0.05 µM; in experiment [5], 0.0193 µM; in experiment [7], 0.0829 µM and 0.05 µM; in [8], 0.0748 µM and 0.05 µM; in experiment [9] it was 0.0479 µM and 0.05 µM. Besides, the GI50 in [10] is 0.256 µM and 0.0637 µM. Further, the TGI in [3] is 0.00118 µM; in experiment [5], 0.3 µM and 0.174 µM; in experiment [6], 0.00425 µM.
Regarding `O=c1[nH]c(C2CCCCC2)nc2cc(Cl)ccc12`, the TGI in experiment [1], in experiment [2], in [3], in experiment [4], in experiment [5] and in experiment [7] was over 100 µM throughout. Also, the TGI in experiment [8], in experiment [9] and in experiment [10] was over 100 µM each time.
In the case of `O=C(CCc1cc(-c2ccco2)n(-c2ccc([N+](=O)[O-])cc2[N+](=O)[O-])n1)Nc1ccccc1`, the TGI in experiment [1], in experiment [2], in [3], in experiment [4], in experiment [5] and in experiment [7] was over 100 µM in each case. Also, the TGI in experiment [8], in experiment [9] and in [10] was over 100 µM each time.

Values taken from PubChem BioAssay (NCI).
